Measurements taken from US11174291B2, “Silstatin compounds” (Arizona Board of Regents on behalf of Arizona State …, priority 2015, dated 2021).

Tests used:
Assay type in all cases: cell-based, human
NCI-H460 = assay: NCI sulforhodamine B growth inhibition, lung cancer cells; details: 48 h
Experimental: (§1) Inhibition of human cancer cell growth was assessed using the National Cancer Institute's standard sulforhodamine B assay as previously described.^19In summary, cells in a 5% fetal bovine serum/RPMI1640 medium were inoculated in 96-well plates and incubated for 24 hrs. Next, serial dilutions of the compounds were added. After 48 h, the plates were fixed with trichloroacetic acid, stained with sulforhodamine B, and read with an automated microplate reader. A growth inhibition of 50% (GI50 or the drug concentration causing a 50% reduction in the net protein increase) was calcd from optical density data with Immunosoft software. Normal cells were treated in identical conditions. Normal human prostate CRL-2221 (PZ—HPV-7) was grown in MEM 10% FBS and normal human breast MCF-10A in MEGM kit.

[1] = tested on: mini panel of cancer cell lines; assay: Growth inhibition across the mini panel of cancer cell lines; details: mini panel of cancer cell lines (Table 1)
Experimental: as §1
The growth inhibition property of the silstatins and some intermediates were evaluated against a mini panel of cancer cell lines (Table 1).

MCF-7 = assay: NCI sulforhodamine B growth inhibition, breast cancer cells; details: MCF-7 breast, 48 h
Experimental: as §1

BXPC-3 = assay: NCI sulforhodamine B growth inhibition, pancreas cancer cells; details: BXPC3 pancreas, 48 h
Experimental: as §1

KM20L2 = assay: NCI sulforhodamine B growth inhibition, colon cancer cells; details: 48 h
Experimental: as §1

SF268 = assay: NCI sulforhodamine B growth inhibition, CNS cancer cells; details: 48 h
Experimental: as §1

DU-145 = assay: NCI sulforhodamine B growth inhibition, prostate cancer cells; details: DU145 prostate, 48 h
Experimental: as §1

Row | Structure (SMILES) | Growth inhibition of human cancer cell lines GI50 (NCI-H460) [mg/L] | Cancer cell growth inhibition, assessment in words [1] | Growth inhibition of human cancer cell lines GI50 (MCF-7) [mg/L] | Growth inhibition of human cancer cell lines GI50 (BXPC-3) [mg/L] | Growth inhibition of human cancer cell lines GI50 (KM20L2) [mg/L] | Growth inhibition of human cancer cell lines GI50 (SF268) [mg/L] | Growth inhibition of human cancer cell lines GI50 (DU-145) [mg/L]
1 | CC(C)C[C@H]1OC(=O)[C@H](C(C)C)NC(=O)[C@H](C)OC(=O)[C@@H](C(C)C)NC(=O)[C@@H](CC(C)C)OC(=O)[C@H](C(C)C)NC(=O)[C@H](C)OC(=O)[C@@H](C(C)C)NC(=O)[C@@H](CC(C)C)OC(=O)[C@H](C(C)C)NC(=O)[C@H](C)OC(=O)[C@@H](C(C)C)NC1=O [Silstatin 1 (7a), Cyclo-[Val-D-Hica-D-Val-Lac]3] | 0.0007 | did not affect its high potency | 0.00011 | 0.0008 | 0.00016 | 0.00021 | 0.00042
2 | CC(C)C[C@H]1OC(=O)[C@H](C(C)C)NC(=O)[C@H](C)OC(=O)[C@@H](C(C)C)NC(=O)[C@@H](CC(C)C)OC(=O)[C@H]([C@@H](C)O)NC(=O)[C@H](C)OC(=O)[C@@H](C(C)C)NC(=O)[C@@H](CC(C)C)OC(=O)[C@H](C(C)C)NC(=O)[C@H](C)OC(=O)[C@@H](C(C)C)NC1=O [Silstatin 2 (8a), Cyclo-{Thr-D-Hica-D-Val-Lac-[Val-D-Hica-D-Val-Lac]2}] | 0.0032 | somewhat decreased activity | 0.0022 | 0.004 | 0.0033 | 0.0031 | 0.006
3 | CC(C)C[C@H]1OC(=O)[C@H](Cc2ccc(O)cc2)NC(=O)[C@H](C)OC(=O)[C@@H](C(C)C)NC(=O)[C@@H](CC(C)C)OC(=O)[C@H](C(C)C)NC(=O)[C@H](C)OC(=O)[C@@H](C(C)C)NC(=O)[C@@H](CC(C)C)OC(=O)[C@H](C(C)C)NC(=O)[C@H](C)OC(=O)[C@@H](C(C)C)NC1=O [Silstatin 3 (8b), Cyclo-{Tyr-D-Hica-D-Val-Lac-[Val-D-Hica-D-Val-Lac]2}] | 0.0037 | somewhat decreased activity | 0.0016 | 0.005 | 0.0011 | 0.004 | 0.0051
4 | CC(C)[C@@H]1NC(=O)[C@H](C)OC(=O)[C@@H](C(C)C)NC(=O)[C@@H](CC2CCCCC2)OC(=O)[C@H](C(C)C)NC(=O)[C@H](C)OC(=O)[C@@H](C(C)C)NC(=O)[C@@H](CC2CCCCC2)OC(=O)[C@H](C(C)C)NC(=O)[C@H](C)OC(=O)[C@@H](C(C)C)NC(=O)[C@@H](CC2CCCCC2)OC1=O [Silstatin 4 (14a), Cyclo-[Val-D-Hcha-D-Val-Lac]3] | 0.4 | marked reduction of cancer cell growth inhibition capability | 0.18 | 0.5 | 0.18 | 0.081 | 0.22
5 | CC(C)[C@@H]1NC(=O)[C@H](C)OC(=O)[C@@H](C(C)C)NC(=O)[C@@H](CC2CCCCC2)OC(=O)[C@H]([C@@H](C)O)NC(=O)[C@H](C)OC(=O)[C@@H](C(C)C)NC(=O)[C@@H](CC2CCCCC2)OC(=O)[C@H](C(C)C)NC(=O)[C@H](C)OC(=O)[C@@H](C(C)C)NC(=O)[C@@H](CC2CCCCC2)OC1=O [Silstatin 5 (15a), Cyclo-{Thr-D-Hcha-D-Val-Lac-[Val-D-Hcha-D-Val-Lac]2}] | 0.021 | very high inhibitory activity | 0.0031 | 0.03 | 0.0044 | 0.0044 | 0.005
6 | CC(C)[C@@H]1NC(=O)[C@H](C)OC(=O)[C@@H](C(C)C)NC(=O)[C@@H](CC2CCCCC2)OC(=O)[C@H](C(C)C)NC(=O)[C@H](C)OC(=O)[C@@H](C(C)C)NC(=O)[C@@H](CC2CCCCC2)OC(=O)[C@H](Cc2ccc(O)cc2)NC(=O)[C@H](C)OC(=O)[C@@H](C(C)C)NC(=O)[C@@H](CC2CCCCC2)OC1=O [Silstatin 6 (15b), Cyclo-{Tyr-D-Hcha-D-Val-Lac-[Val-D-Hcha-D-Val-Lac]2}] | 0.32 | marked reduction of cancer cell growth inhibition capability | 0.12 | 0.53 | 0.09 | 0.05 | 0.22
7 | CC(C)C[C@H]1OC(=O)[C@H](Cc2ccc(OC(C)(C)C)cc2)NC(=O)[C@H](C)OC(=O)[C@@H](C(C)C)NC(=O)[C@@H](CC(C)C)OC(=O)[C@H](C(C)C)NC(=O)[C@H](C)OC(=O)[C@@H](C(C)C)NC(=O)[C@@H](CC(C)C)OC(=O)[C@H](C(C)C)NC(=O)[C@H](C)OC(=O)[C@@H](C(C)C)NC1=O [Silstatin 7c, Cyclo-{Tyr(tBu)-D-Hica-D-Val-Lac-[Val-D-Hica-D-Val-Lac]2}] | 0.029 |  | 0.0042 | 0.03 | 0.0048 | 0.0025 | 0.011
8 | CC(C)[C@@H]1NC(=O)[C@H](C)OC(=O)[C@@H](C(C)C)NC(=O)[C@@H](CC2CCCCC2)OC(=O)[C@H]([C@@H](C)OC(C)(C)C)NC(=O)[C@H](C)OC(=O)[C@@H](C(C)C)NC(=O)[C@@H](CC2CCCCC2)OC(=O)[C@H](C(C)C)NC(=O)[C@H](C)OC(=O)[C@@H](C(C)C)NC(=O)[C@@H](CC2CCCCC2)OC1=O [Silstatin 14b, Cyclo-{Thr(tBu)-D-Hcha-D-Val-Lac-[Val-D-Hcha-D-Val-Lac]2}] | 0.32 |  | 0.075 | 0.18 | 0.08 | 0.075 | 0.12
9 | CC(C)[C@@H]1NC(=O)[C@H](C)OC(=O)[C@@H](C(C)C)NC(=O)[C@@H](CC2CCCCC2)OC(=O)[C@H](C(C)C)NC(=O)[C@H](C)OC(=O)[C@@H](C(C)C)NC(=O)[C@@H](CC2CCCCC2)OC(=O)[C@H](Cc2ccc(OC(C)(C)C)cc2)NC(=O)[C@H](C)OC(=O)[C@@H](C(C)C)NC(=O)[C@@H](CC2CCCCC2)OC1=O [Silstatin 14c, Cyclo-{Tyr(tBu)-D-Hcha-D-Val-Lac-[Val-D-Hcha-D-Val-Lac]2}] | >1 |  | >1 | >1 | >1 | >1 | >1
10 | CC(C)C[C@H]1OC(=O)[C@H](C(C)C)NC(=O)[C@H](C)OC(=O)[C@@H](C(C)C)NC(=O)[C@@H](CC2CCCCC2)OC(=O)[C@H]([C@@H](C)OC(C)(C)C)NC(=O)[C@H](C)OC(=O)[C@@H](C(C)C)NC(=O)[C@@H](CC(C)C)OC(=O)[C@H](C(C)C)NC(=O)[C@H](C)OC(=O)[C@@H](C(C)C)NC1=O [Silstatin 17a, Cyclo-{Thr(tBu)-D-Hcha-D-Val-Lac-[Val-D-Hica-D-Val-Lac]2}] | 0.009 |  | 0.001 | 0.023 | 0.0024 | 0.004 | 0.007
11 | CC(C)C[C@H]1OC(=O)[C@H](C(C)C)NC(=O)[C@H](C)OC(=O)[C@@H](C(C)C)NC(=O)[C@@H](CC(C)C)OC(=O)[C@H](C(C)C)NC(=O)[C@H](C)OC(=O)[C@@H](C(C)C)NC(=O)[C@@H](CC2CCCCC2)OC(=O)[C@H](Cc2ccc(OC(C)(C)C)cc2)NC(=O)[C@H](C)OC(=O)[C@@H](C(C)C)NC1=O [Silstatin 17b, Cyclo-{Tyr(tBu)-D-Hcha-D-Val-Lac-[Val-D-Hica-D-Val-Lac]2}] | 0.12 |  | 0.032 | 0.09 | 0.052 | 0.06 | 0.04
